Measured values reported in patent US6831075B2, “Heterocyclic substituted pyrazolones” (Cephalon, Inc., priority 1999, dated 2004).

Assays:
Type in all cases: biochemical
[1] = biological target: T1, baculovirus-expressed human trkA cytoplasmic domain (Homo sapiens, UniProt P04629); test: trkA tyrosine kinase inhibition assay (ELISA-based); conditions: 1 uM compound; 40 μM ATP
T1 construct: baculovirus-expressed human trkA cytoplasmic domain; host or cells: baculovirus expression system
Procedure: Inhibition of trkA Tyrosine Kinase Activity
Selected heterocyclic substituted pyrazolones were tested for their ability to inhibit the kinase activity of baculovirus-expressed human trkA cytoplasmic domain using an ELISA-based assay as previously described (Angeles et al., Anal. Biochem. 236: 49-55, 1996). Briefly, a 96-well microtiter plate was coated with substrate solution (recombinant human phospholipase C-γl/glutathione S-transferase fusion protein (Rotin et al., EMBO J., 11: 559-567, 1992). Inhibition studies were performed in 100 μl assay mixtures containing 50 mM Hepes, pH 7.4, 40 μM ATP, 10 mM MnCl2, 0.1% BSA, 2% DMSO, and various concentrations of inhibitor. The reaction was initiated by addition of trkA kinase and allowed to proceed for 15 minutes at 37° C. An antibody to phosphotyrosine (UBI) was then added, followed by a secondary enzyme-conjugated antibody, alkaline phosphatase-labelled goat anti-mouse IgG (Bio-Rad). The activity of the bound enzyme was measured via an amplified detection system (Gibco-BRL). Inhibition data were analyzed using the sigmoidal dose-response (variable slope) equation in GraphPad Prism.

[2] = biological target: T2, recombinant human baculovirus-expressed VEGFR1 cytoplasmic domain (Homo sapiens, UniProt P17948); test: VEGFR1 kinase inhibition assay (ELISA-based, time-resolved fluorescence); conditions: 1 uM compound, 30 μM ATP
T2 construct: recombinant human baculovirus-expressed VEGFR1 cytoplasmic domain; host or cells: baculovirus expression system
T2 sequence (P17948 781-1338 limits assumed): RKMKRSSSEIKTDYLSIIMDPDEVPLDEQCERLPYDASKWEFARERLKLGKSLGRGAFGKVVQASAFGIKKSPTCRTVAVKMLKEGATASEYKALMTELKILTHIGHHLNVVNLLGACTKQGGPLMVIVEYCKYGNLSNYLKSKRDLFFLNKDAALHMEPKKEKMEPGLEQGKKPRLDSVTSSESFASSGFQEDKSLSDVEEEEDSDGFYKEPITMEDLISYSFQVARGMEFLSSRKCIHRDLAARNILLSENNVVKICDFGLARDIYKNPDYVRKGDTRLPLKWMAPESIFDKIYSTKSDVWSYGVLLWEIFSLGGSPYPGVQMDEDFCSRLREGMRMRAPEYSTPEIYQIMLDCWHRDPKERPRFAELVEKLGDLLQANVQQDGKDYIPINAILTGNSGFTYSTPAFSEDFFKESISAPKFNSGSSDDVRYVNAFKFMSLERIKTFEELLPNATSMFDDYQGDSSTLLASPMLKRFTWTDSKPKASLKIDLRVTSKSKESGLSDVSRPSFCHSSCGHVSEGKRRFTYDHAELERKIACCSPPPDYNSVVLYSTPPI
Procedure: Inhibition of Vascular Endothelial Growth Factor Receptor-1 Kinase Activity
The VEGFR1 kinase activity assay utilizes an ELISA-based format in a 96-well FluoroNUNC Maxisorp plate with a time-resolved fluorescence readout. The plate was coated with 100 μl/well of substrate solution (recombinant human PLC-γ/GST) at a concentration of 40 μg/ml in Tris buffered saline (TBS). The VEGFR1 activity was assayed in 100-μl assay micture containing 50 mM HEPES (pH 7.4), 30 μM ATP, 10 mM MnCl2, 0.1% BSA, 2% DMSO, and 300 ng/ml prephosphorylated recombinant human baculovirus-expressed VEGFR1 cytoplasmic domain. Compounds were screened for inhibition of the VEGFR1 kinase activity at a concentration of 1 μM. The kinase reaction was allowed to proceed at 37° C. for 15 minutes. The detection antibody, europium-labeled anti-phosphotyrosine antibody (Wallac #CR04-100), was added at 1:5000 dilution in block buffer (3% BSA in TBST). After a 1-hour incubation at 37° C., 100 μl of enhancement solution (Wallac #1244-105) was added and the plate was gently agitated. After 5 min, the fluorescence of the resulting solution was measured using the BMG Fluostar (Model # 403).

[3] = biological target: T3, recombinant human baculovirus-expressed FGFR1 cytoplasmic domain (Homo sapiens, UniProt P11362); test: FGFR1 kinase inhibition assay (ELISA-based, time-resolved fluorescence); conditions: 1 uM compound; 20 μM ATP
T3 construct: recombinant human baculovirus-expressed FGFR1 cytoplasmic domain; host or cells: baculovirus expression system
T3 sequence (P11362 398-822 limits assumed): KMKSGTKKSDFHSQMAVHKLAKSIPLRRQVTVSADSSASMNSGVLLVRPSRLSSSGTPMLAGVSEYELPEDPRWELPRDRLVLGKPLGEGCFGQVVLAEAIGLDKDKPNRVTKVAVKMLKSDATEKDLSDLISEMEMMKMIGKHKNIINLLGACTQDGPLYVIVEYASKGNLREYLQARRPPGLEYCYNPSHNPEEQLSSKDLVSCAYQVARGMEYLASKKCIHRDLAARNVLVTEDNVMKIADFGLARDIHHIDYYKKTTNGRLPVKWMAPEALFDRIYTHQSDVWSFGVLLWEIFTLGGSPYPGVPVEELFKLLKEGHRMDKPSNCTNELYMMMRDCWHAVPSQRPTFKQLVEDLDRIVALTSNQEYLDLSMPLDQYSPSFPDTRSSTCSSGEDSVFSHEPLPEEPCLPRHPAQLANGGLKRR
Procedure: Inhibition of Fibroblast Growth Factor Receptor-1 (FGFR1) Kinase Activity
The FGFR1 kinase activity was measured using an ELISA-based format in a 96-well FluoroNUNC Maxisorp plate with a time-resolved fluorescence readout as described for trkA kinase. The plate was coated with 100 μl/well of substrate solution (recombinant human PLC-γ/GST) at a concentration of 10 μg/ml in Tris buffered saline (TBS). The FDGFR1 activity was assayed in 100-μl assay micture containing 50 mM HEPES (pH 7.4), 20 μM ATP, 10 mM MnCl2, 0.1% BSA, 2% DMSO, and 15 ng/ml recombinant human baculovirus-expressed FGFR1 cytoplasmic domain (prephosphorylated prior to use). Compounds were screened for inhibition of the FGFR1 kinase activity at a conentration of 1 μM. The kinase reaction was allowed to proceed at 37° C. for 15 minutes. The detection antibody, europium-labeled anti-phosphotyrosine antibody (Wallace #CR04-100), was added at 1:5000 dilution in block buffer (3% BSA in TBST). After a 1-hour incubation at 37° C., 100 μl of enhancement solution (Wallac #1244-105) and the plate was gently agitated. After 5 min, the fluorescence of the resulting solutions measured using the BMG Fluostar (Model # 403).

baculoviral GST-MLK3KD = biological target: T4, baculoviral GST-MLK3KD (Homo sapiens, UniProt Q16584); test: Mixed Lineage Kinase-3 inhibition assay (Millipore Multiscreen plate, 32P); conditions: 1 uM compound, 100 μM ATP
T4 construct: 2 μg/ml of baculoviral GST-MLK3KD; GST (N); host or cells: baculovirus expression system
T4 sequence (Q16584 117-379 limits assumed): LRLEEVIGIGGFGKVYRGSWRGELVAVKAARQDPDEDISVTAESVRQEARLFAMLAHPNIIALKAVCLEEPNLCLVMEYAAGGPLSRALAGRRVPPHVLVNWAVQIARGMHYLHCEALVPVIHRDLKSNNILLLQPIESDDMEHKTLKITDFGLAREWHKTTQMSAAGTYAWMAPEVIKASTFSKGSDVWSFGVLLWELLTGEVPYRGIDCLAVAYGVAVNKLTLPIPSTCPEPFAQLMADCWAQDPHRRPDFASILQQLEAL
Procedure: Inhibition of Mixed Lineage Kinase-3 Activity
Assays were performed using the Millipore Multiscreen plate format as described for MLK1. Briefly, each 50-μl assay mixture contained 20 mM Hepes, pH 7, 1 mM EGTA, 10 mM MgCl2, 1 mM DTT, 25 mM β-glycerophosphate, 100 μM ATP, 0.25 μCi [γ-^32P]ATP, 0.1% BSA, 500 μg/ml myelin basic protein (UBI #13-104), 2% DMSO, various concentrations of test compound, and 2 μg/ml of baculoviral GST-MLK3KD. Samples were incubated for 15 min at 37° C. The reaction was stopped by adding ice cold 50% TCA and the proteins were allowed to precipitate for 30 min at 4° C. The plates were then washed with ice cold 25% TCA. Supermix scintillation cocktail was added, and the plates were allowed to equilibrate for 1-2 hours prior to counting.

T1 sequence (P04629 440-796 limits assumed): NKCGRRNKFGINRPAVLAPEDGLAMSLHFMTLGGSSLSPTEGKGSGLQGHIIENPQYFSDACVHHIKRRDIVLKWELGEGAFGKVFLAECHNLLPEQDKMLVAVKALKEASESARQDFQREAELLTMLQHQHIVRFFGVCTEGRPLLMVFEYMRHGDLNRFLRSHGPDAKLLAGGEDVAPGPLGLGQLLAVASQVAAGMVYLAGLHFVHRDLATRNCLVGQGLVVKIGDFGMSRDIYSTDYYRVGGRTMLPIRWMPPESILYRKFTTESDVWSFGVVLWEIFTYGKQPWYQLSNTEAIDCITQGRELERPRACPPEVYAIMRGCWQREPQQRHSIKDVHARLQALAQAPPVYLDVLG

Row | SMILES | trkA % inhibition @ 1 uM [1] [%] | VEGFR-1 kinase % inhibition @ 1 uM [2] [%] | FGFR1 % inhibition @ 1 uM [3] [%] | MLK-3 Kinase % inhibition @ 1 uM (baculoviral GST-MLK3KD) [%] | inhibition at 1 µM [1] [%] | inhibition at 1 µM ([2]; read-out: VEGFR-1 kinase % inhibition @ 1 uM) [%] | inhibition at 1 µM [3] [%] | inhibition at 1 µM (baculoviral GST-MLK3KD; read-out: MLK-3 Kinase % inhibition @ 1 uM) [%]
1 | Cc1cccc2c(C=C3C(=O)NN=C3c3ccco3)c[nH]c12 [Compound 47] | 37 | 40 | 32 | 31 |  |  |  | 
2 | O=C1NN=C(c2ccco2)C1=Cc1c[nH]c2ccc(F)cc12 [Compound 48] | 47 | 54 | 43 | 31 |  |  |  | 
3 | O=C1NN=C(c2ccco2)C1=Cc1c[nH]c2ccc(Cl)cc12 [Compound 49] | 56 | 32 | 39 | 21 |  |  |  | 
4 | COC(=O)c1ccc2c(C=C3C(=O)NN=C3c3ccco3)c[nH]c2c1 [Compound 50] | 28 | 31 | 20 | 15 |  |  |  | 
5 | COc1ccc2[nH]cc(C=C3C(=O)NN=C3c3ccco3)c2c1 [Compound 51] | 56 | 25 | 9 | 47 |  |  |  | 
6 | CN(C)c1ccc(C=C2C(=O)NN=C2c2ccco2)cc1 [Compound 52] | 10 | 0 | 10 | 19 |  |  |  | 
7 | Cc1nc[nH]c1C=C1C(=O)NN=C1c1ccco1 [Compound 53] | 20 | 21 | 50 | 12 |  |  |  | 
8 | O=C1NN=C(c2ccco2)C1=Cc1ncc[nH]1 [Compound 54] | 20 | 5 | 45 | 0 |  |  |  | 
9 | Cc1cc(C)c(C=C2C(=O)NN=C2c2cccn2C)[nH]1 [Compound 55] | 47 | 20 | 36 | 26 |  |  |  | 
10 | Cn1cccc1C1=NNC(=O)C1=Cc1c[nH]c2ccc(F)cc12 [Compound 56] | 48 | 5 | 30 | −1 |  |  |  | 
11 | Cc1cc(C)c(C=C2C(=O)NN=C2c2cc3ccccc3o2)[nH]1 [Compound 57, 3-benzo[d]furan-2-yl-4-[(3,5-dimethylpyrrol-2-yl)methylene]-2-pyrazolin-5-one] |  |  |  |  | 33 | 7 | -2 | 67
